Experimental data from patent US6143769A, “Phenylacetic acid benzylamides” (Karl Thomae GmbH, priority 1983, dated 2000).

Columns and labels:
Format in all cases: in vivo, human
glucose [1] = assay: Study 3: whole blood glucose, single fasting test subject, crossover
glucose [2] = assay: Study 1: whole blood glucose, 2 mg AG-EE 388 ZW capsule, 12 healthy male volunteers; conditions: 2 mg capsule
glucose [3] = assay: Study 2: whole blood glucose, 2 mg AG-EE 388 ZW capsule or tablet, crossover
Description: (§1) Blood samples were taken at various times.

[4] = Study 2: plasma concentration, HPLC; conditions: for concentration at 0.2 h: 0.20 h; for concentration at 0.5 h: 0.50 h; for concentration at 1.5 h: 1.50 h
Description: as §1

glucose [5] = assay: Study 5: plasma glucose after 1 mg AG-EE 388 ZW i.v., oral solution or capsule
Description: Blood samples were taken at different times.

[6] = human, plasma, po, 2 mg, 2 mg capsule
[7] = human, plasma, po, 2 mg, 2 mg tablet

**Q.** What does the source list for `CCOc1cc(CC(=O)NC(CC(C)C)c2ccccc2N2CCCCC2)ccc1C(=O)O` (racemic) [AG-EE 388 ZW, 2-ethoxy-4-[N-[1-(2-piperidino-phenyl)-3-methyl-1-butyl]aminocarbonylmethyl]-benzoic acid]?
**A.** Time of maximum blood sugar reduction (glucose [1]; 2 mg): 2.0 h; Glucose, deviation against t = 0 (glucose [1]; 2 mg capsule, 0 h): 0%; Glucose, deviation against t = 0 (glucose [1]; 2 mg, 0.50 h): 0%; Glucose, deviation against t = 0 (glucose [1]; 2 mg, 0.75 h): 0%; Glucose, deviation against t = 0 (glucose [1]; 2 mg, 1.00 h): -5%; Glucose, deviation against t = 0 (glucose [1]; 2 mg, 1.25 h): -12%; Glucose, deviation against t = 0 (glucose [1]; 2 mg, 1.50 h): -18%; Glucose, deviation against t = 0 (glucose [1]; 2 mg, 1.75 h): -23%; Glucose, deviation against t = 0 (glucose [1]; 2 mg, 2.00 h): -29%; Glucose, deviation against t = 0 (glucose [1]; 2 mg, 2.50 h): -27%; Glucose, deviation against t = 0 (glucose [1]; 2 mg, 3.00 h): -21%; Glucose, deviation against t = 0 (glucose [1]; 2 mg, 4.00 h): -17%; Glucose, deviation against t = 0 (glucose [1]; 2 mg, 5.00 h): -17%; Glucose, deviation against t = 0 (glucose [1]; 2 mg, 6.00 h): -16%; Maximum lowering of blood glucose (glucose [1]; 4 mg): -38%; Onset of effect (glucose [1]; 4 mg): about 1.0 hour; Time of maximum blood sugar reduction (glucose [1]; 4 mg): 2.0 h; Glucose, deviation against t = 0 (glucose [1]; 4 mg capsule, 0 h): 0%; Glucose, deviation against t = 0 (glucose [1]; 4 mg, 0.50 h): -3%; Glucose, deviation against t = 0 (glucose [1]; 4 mg, 0.75 h): -1%; Glucose, deviation against t = 0 (glucose [1]; 4 mg, 1.00 h): -7%; Glucose, deviation against t = 0 (glucose [1]; 4 mg, 1.25 h): -15%; Glucose, deviation against t = 0 (glucose [1]; 4 mg, 1.50 h): -21%; Glucose, deviation against t = 0 (glucose [1]; 4 mg, 1.75 h): -32%; Glucose, deviation against t = 0 (glucose [1]; 4 mg, 2.00 h): -38%; Glucose, deviation against t = 0 (glucose [1]; 4 mg, 2.50 h): -34%; Glucose, deviation against t = 0 (glucose [1]; 4 mg, 3.00 h): -28%; Glucose, deviation against t = 0 (glucose [1]; 4 mg, 3.50 h): -24%; Glucose, deviation against t = 0 (glucose [1]; 4 mg, 4.00 h): -26%; Glucose, deviation against t = 0 (glucose [1]; 4 mg, 5.00 h): -24%; Glucose, deviation against t = 0 (glucose [1]; 4 mg, 6.00 h): -23%; Glucose, deviation against t = 0 (glucose [1]; 4 mg, 7.00 h): -20%; Glucose, deviation against t = 0 (glucose [1]; 4 mg, 8.00 h): -25%; Duration of activity (glucose [2]): about 5 hours; Glucose, deviation from placebo (glucose [2]; 0 h): n.s.; Glucose, deviation from placebo (glucose [2]; 0.50 h): n.s.; Glucose, deviation from placebo (glucose [2]; 0.75 h): -9%; Glucose, deviation from placebo (glucose [2]; 1.00 h): -17%; Glucose, deviation from placebo (glucose [2]; 1.50 h): -27%; Glucose, deviation from placebo (glucose [2]; 2.00 h): -24%; Glucose, deviation from placebo (glucose [2]; 2.50 h): -19%; Glucose, deviation from placebo (glucose [2]; 3.00 h): n.s.; Glucose, deviation from placebo (glucose [2]; 4.00 h): -24%; Glucose, deviation from placebo (glucose [2]; 5.00 h): -9%; Glucose, deviation from placebo (glucose [2]; 5.50 h (lunch)): n.s.; Glucose, deviation from placebo (glucose [2]; 6.00 h): n.s.; Glucose, deviation from placebo (glucose [2]; 7.00 h (snack)): n.s.; Glucose, deviation from placebo (glucose [2]; 8.00 h): -5%; Glucose, deviation from placebo (glucose [2]; 9.00 h): n.s.; Glucose, deviation from placebo (glucose [2]; 10.00 h (dinner)): n.s.; Glucose (mean) (glucose [3]; 2 mg capsule, 0 h): 5.0 mmol/L; Glucose (mean) (glucose [3]; 2 mg capsule, 0.20 h): 5.0 mmol/L; Glucose (mean) (glucose [3]; 2 mg capsule, 0.33 h): 4.9 mmol/L; Glucose (mean) (glucose [3]; 2 mg capsule, 0.50 h): 4.8 mmol/L; Glucose (mean) (glucose [3]; 2 mg capsule, 0.75 h): 4.6 mmol/L; Glucose (mean) (glucose [3]; 2 mg capsule, 1.00 h): 4.4 mmol/L; Glucose (mean) (glucose [3]; 2 mg capsule, 1.50 h): 3.9 mmol/L; Glucose (mean) (glucose [3]; 2 mg capsule, 2.00 h (breakfast)): 3.7 mmol/L; Glucose (mean) (glucose [3]; 2 mg capsule, 3.00 h): 4.4 mmol/L; Glucose (mean) (glucose [3]; 2 mg capsule, 4.00 h): 4.0 mmol/L; Glucose (mean) (glucose [3]; 2 mg capsule, 5.00 h (lunch)): 4.2 mmol/L; Glucose (mean) (glucose [3]; 2 mg capsule, 6.00 h): 4.8 mmol/L; Glucose (mean) (glucose [3]; 2 mg capsule, 9.00 h): 5.0 mmol/L; Glucose (mean) (glucose [3]; 2 mg capsule, 24.00 h): 4.9 mmol/L; Time at which glucose levels return to original level (glucose [3]; 2 mg p.o.): 6 h; Glucose (mean) (glucose [3]; 2 mg tablet, 0 h): 4.9 mmol/L; Glucose (mean) (glucose [3]; 2 mg tablet, 0.20 h): 5.0 mmol/L; Glucose (mean) (glucose [3]; 2 mg tablet, 0.33 h): 4.9 mmol/L; Glucose (mean) (glucose [3]; 2 mg tablet, 0.50 h): 4.6 mmol/L; Glucose (mean) (glucose [3]; 2 mg tablet, 0.75 h): 4.4 mmol/L; Glucose (mean) (glucose [3]; 2 mg tablet, 1.00 h): 4.1 mmol/L; Glucose (mean) (glucose [3]; 2 mg tablet, 1.50 h): 3.8 mmol/L; Glucose (mean) (glucose [3]; 2 mg tablet, 2.00 h (breakfast)): 3.8 mmol/L; Glucose (mean) (glucose [3]; 2 mg tablet, 3.00 h): 4.7 mmol/L; Glucose (mean) (glucose [3]; 2 mg tablet, 4.00 h): 4.2 mmol/L; Glucose (mean) (glucose [3]; 2 mg tablet, 5.00 h (lunch)): 4.2 mmol/L; Glucose (mean) (glucose [3]; 2 mg tablet, 6.00 h): 5.2 mmol/L; Glucose (mean) (glucose [3]; 2 mg tablet, 9.00 h): 5.0 mmol/L; Glucose (mean) (glucose [3]; 2 mg tablet, 24.00 h): 4.8 mmol/L; Concentration (mean) ([4]; 2 mg capsule, 0 h): 0.0 ng/mL; Concentration (mean) ([4]; 2 mg capsule, 4.00 h, listed as 388, 240 min): 17 ± 5 ng/mL; Concentration (mean) ([4]; 2 mg capsule, 5.00 h, listed as 388, 300 min): 12 ± 3 ng/mL; Concentration (mean) ([4]; 2 mg capsule, 6.00 h, listed as 388, 360 min): 8 ± 4 ng/mL; Concentration (mean) ([4]; 2 mg capsule, 24.00 h): 0.0 ng/mL; Rise and peak of plasma level, tablet versus capsule ([4]; 2 mg p.o.): rises rather more rapidly after administration of the tablet and reaches its peak somewhat earlier; Time at which level reaches / falls below the detection limit ([4]; 2 mg p.o.): ≥ 6 h; Time at which level reaches / falls below the detection limit ([4]; 2 mg p.o., listed as AG-EE 398 ZW): about 6 hours; Maximum concentration ([4]; 2 mg tablet p.o.): 83.5 ± 25.5 ng/mL; Concentration (mean) ([4]; 2 mg tablet, 0 h): 0.0 ng/mL; Concentration (mean) ([4]; 2 mg tablet, 4.00 h, 240 min): 19.1 ng/mL; Concentration (mean) ([4]; 2 mg tablet, 24.00 h): 0.0 ng/mL; concentration at 0.2 h [4, 6]: 0.9 ng/mL; concentration at 0.33 h [4, 6]: 17.5 ng/mL; concentration at 0.5 h [4, 6]: 44.9 ng/mL; concentration at 0.75 h [4, 6]: 66.4 ng/mL; concentration at 1 h [4, 6]: 73.7 ng/mL; concentration at 1.5 h [4, 6]: 65.1 ng/mL; concentration at 2 h [4, 6]: 50.8 ng/mL; concentration at 3 h [4, 6]: 27.9 ng/mL; concentration at 4 h ([4]; human, plasma, po, 2 mg, 2 mg capsule, 4.00 h): 16.8 ng/mL; concentration at 5 h ([4]; human, plasma, po, 2 mg, 2 mg capsule, 5.00 h): 12.2 ng/mL; concentration at 6 h ([4]; human, plasma, po, 2 mg, 2 mg capsule, 6.00 h): 7.8 ng/mL; concentration at 9 h [4, 6]: 3.3 ng/mL; concentration at 0.2 h [4, 7]: 15 ng/mL; concentration at 0.33 h [4, 7]: 55.6 ng/mL; concentration at 0.5 h [4, 7]: 75.6 ng/mL; concentration at 0.75 h [4, 7]: 83.5 ng/mL; concentration at 1 h [4, 7]: 81.3 ng/mL; concentration at 1.5 h [4, 7]: 65.9 ng/mL; concentration at 2 h [4, 7]: 51.3 ng/mL; concentration at 3 h [4, 7]: 32.4 ng/mL; concentration at 5 h ([4]; human, plasma, po, 2 mg, 2 mg tablet, 5.00 h): 13.2 ng/mL; concentration at 6 h ([4]; human, plasma, po, 2 mg, 2 mg tablet, 6.00 h): 9.5 ng/mL; concentration at 9 h [4, 7]: 5.2 ng/mL; Cmax ([4]; human, plasma, po, 2 mg capsule p.o., read-out: Maximum concentration): 74 ± 15 ng/mL; Glucose (mean) (glucose [5]; 1 mg i.v., 0.00 h): 6.10 mmol/L; Glucose (mean) (glucose [5]; 1 mg p.o. capsule, 0.00 h): 5.32 mmol/L; Glucose (mean) (glucose [5]; 1 mg p.o. solution, 0.00 h): 5.85 mmol/L; Glucose (mean) (glucose [5]; i.v., 0.08 h): 6.54 mmol/L; Glucose (mean) (glucose [5]; i.v., 0.17 h): 6.46 mmol/L; Glucose (mean) (glucose [5]; i.v., 0.25 h): 6.46 mmol/L; Glucose (mean) (glucose [5]; i.v., 0.28 h): 6.46 mmol/L; Glucose (mean) (glucose [5]; i.v., 0.33 h): 6.40 mmol/L; Glucose (mean) (glucose [5]; i.v., 0.42 h): 6.01 mmol/L; Glucose (mean) (glucose [5]; i.v., 0.50 h): 5.86 mmol/L; Glucose (mean) (glucose [5]; i.v., 0.75 h): 5.14 mmol/L; Glucose (mean) (glucose [5]; i.v., 1.00 h): 4.57 mmol/L; Glucose (mean) (glucose [5]; i.v., 1.50 h): 4.55 mmol/L; Glucose (mean) (glucose [5]; i.v., 2.00 h (breakfast)): 5.11 mmol/L; Glucose (mean) (glucose [5]; i.v., 2.50 h): 7.14 mmol/L; Glucose (mean) (glucose [5]; i.v., 3.00 h): 6.31 mmol/L; Glucose (mean) (glucose [5]; i.v., 4.00 h): 5.58 mmol/L; Glucose (mean) (glucose [5]; i.v., 5.00 h (lunch)): 5.48 mmol/L; Glucose (mean) (glucose [5]; i.v., 6.00 h): 6.53 mmol/L; Glucose (mean) (glucose [5]; i.v., 9.00 h): 6.49 mmol/L; Glucose (mean) (glucose [5]; i.v., 24.00 h): 6.24 mmol/L; Glucose (mean) (glucose [5]; p.o. capsule, 0.25 h): 6.08 mmol/L; Glucose (mean) (glucose [5]; p.o. capsule, 0.50 h): 5.87 mmol/L; Glucose (mean) (glucose [5]; p.o. capsule, 0.75 h): 5.85 mmol/L; Glucose (mean) (glucose [5]; p.o. capsule, 1.00 h): 5.57 mmol/L; Glucose (mean) (glucose [5]; p.o. capsule, 1.50 h): 5.24 mmol/L; Glucose (mean) (glucose [5]; p.o. capsule, 2.00 h (breakfast)): 5.04 mmol/L; Glucose (mean) (glucose [5]; p.o. capsule, 3.00 h): 5.04 mmol/L; Glucose (mean) (glucose [5]; p.o. capsule, 4.00 h): 4.43 mmol/L; Glucose (mean) (glucose [5]; p.o. capsule, 5.00 h (lunch)): 4.71 mmol/L; Glucose (mean) (glucose [5]; p.o. capsule, 6.00 h): 5.41 mmol/L; Glucose (mean) (glucose [5]; p.o. capsule, 9.00 h): 5.42 mmol/L; Glucose (mean) (glucose [5]; p.o. capsule, 24.00 h): 5.44 mmol/L; Glucose (mean) (glucose [5]; p.o. solution, 0.25 h): 6.13 mmol/L; Glucose (mean) (glucose [5]; p.o. solution, 0.50 h): 5.99 mmol/L; Glucose (mean) (glucose [5]; p.o. solution, 0.75 h): 5.83 mmol/L; Glucose (mean) (glucose [5]; p.o. solution, 1.00 h): 5.77 mmol/L; Glucose (mean) (glucose [5]; p.o. solution, 1.50 h): 5.40 mmol/L; Glucose (mean) (glucose [5]; p.o. solution, 2.00 h (breakfast)): 5.11 mmol/L; Glucose (mean) (glucose [5]; p.o. solution, 3.00 h): 5.40 mmol/L; Glucose (mean) (glucose [5]; p.o. solution, 4.00 h): 4.86 mmol/L; Glucose (mean) (glucose [5]; p.o. solution, 5.00 h (lunch)): 5.12 mmol/L; Glucose (mean) (glucose [5]; p.o. solution, 6.00 h): 5.60 mmol/L; Glucose (mean) (glucose [5]; p.o. solution, 9.00 h): 5.68 mmol/L; Glucose (mean) (glucose [5]; p.o. solution, 24.00 h): 5.60 mmol/L
